Test results as given in ChEMBL document CHEMBL1135216, “New 2-(1-adamantylcarbonyl)pyridine and 1-acetyladamantane thiosemicarbazones-thiocarbonohydrazones: cell growth inhibitory, antiviral and antimicrobial activity evaluation” (Bioorg Med Chem Lett, 2002).
Converted amounts (≈) assume the structure as drawn.

Assays:
[1] = test system: HL-60; experiment: Tested for the inhibitory concentration against cell growth of human leukemic cell line HL60; assay type: functional
[2] = test system: Klebsiella pneumoniae; experiment: Tested for the antimicrobial activity against Klebsiella pneumoniae ATCC 13883; assay type: functional
[3] = test system: Vero; experiment: Tested for antiviral activity against Punta toro virus in African green monkey kidney cell (Vero); assay type: functional; settings: Chlorocebus sabaeus
[4] = test system: E6SM; experiment: Antiviral activity against thymidine kinase-deficient (TK-HSV-2G) virus in E6SM cell line(human embryonic skin-muscle fibroblasts); assay type: functional
[5] = test system: HL-60; experiment: Tested for the concentration required to reduce the viability of leukemia cells by 50% against cell growth of HL60 acute myeloid leukemia using MTT assay; assay type: functional; settings: Homo sapiens, read-out: LC50 (the source's name)
[6] = test system: Vero; experiment: Tested for antiviral activity against coxsackie B-4 virus in African green monkey kidney cell (Vero); assay type: functional; settings: Chlorocebus sabaeus
[7] = test system: K562; experiment: Tested for the inhibitory concentration against cell growth of human leukemic cell line K562; assay type: functional
[8] = test system: HEL; experiment: Tested for antiviral activity against thymidine kinase wild type Varicella zoster virus in human embryonic lung fibroblast; assay type: functional
[9] = test system: MOLT-4; experiment: Tested for the inhibitory concentration against cell growth of Tcell leukemic cell line MOLT-4 using MTT assay; assay type: functional; settings: Homo sapiens
[10] = test system: HEL; experiment: Tested for antiviral activity against human cytomegalovirus (AD-169) in human embryonic lung fibroblasts; assay type: functional
[11] = test system: E6SM; experiment: Antiviral activity against thymidine kinase-deficient (TK-HSV-1)virus in E6SM cell line(human embryonic skin-muscle fibroblasts); assay type: functional
[12] = test system: HeLa; experiment: The compound was tested for antiviral activity against VSV-virus in human epithelial cells; assay type: functional
[13] = test system: MOLT-4; experiment: Tested for the inhibitory concentration against cell growth of human leukemic cell line MOLT-4; assay type: functional
[14] = test system: Vero; experiment: Tested for cytotoxic activity in African green monkey kidney cells (Vero); assay type: functional; settings: Chlorocebus sabaeus
[15] = test system: K562; experiment: Tested for the inhibitory concentration against cell growth of K562 chronic myeloid leukemia using MTT assay; assay type: functional; settings: Homo sapiens
[16] = test system: CCRF-CEM; experiment: Tested for the concentration required to reduce the viability of leukemia cells by 50% against cell growth of T cell leukemia cell line CCRF-CEM using MTT assay; assay type: functional; settings: Homo sapiens, read-out: LC50 (the source's name)
[17] = test system: HEL; experiment: Tested for antiviral activity against thymidine kinase deficient Varicella zoster virus in human embryonic lung fibroblasts; assay type: functional
[18] = test system: Staphylococcus epidermidis; experiment: Tested for the antimicrobial activity against Staphylococcus epidermidis ATCC 12228; assay type: functional
[19] = test system: E6SM; experiment: Tested for antiviral activity against vaccinia virus in human embryonic skin muscle fibroblast; assay type: functional; settings: Muscle tissue
[20] = test system: RPMI-8226; experiment: Tested for the inhibitory concentration against cell growth of […] multiple myeloma using MTT assay; assay type: functional; settings: Homo sapiens
[21] = test system: HEL; experiment: Tested for cytotoxic activity in human embryonic lung fibroblast (HEL); assay type: functional
[22] = (§1) Tested for the antimicrobial activity against Staphylococcus hominis ATCC 27844; assay type: functional
[23] = test system: MT4; experiment: Tested for effective concentration required to protect MT-4 cells against the cytopathicity of HIV-2(ROD); assay type: functional, cell-based; settings: Homo sapiens
[24] = test system: Vero; experiment: Tested for antiviral activity against Sindbis virus in African green monkey kidney cell (Vero); assay type: functional; settings: Chlorocebus sabaeus
[25] = test system: HuT78; experiment: Tested for the inhibitory concentration against cell growth of HuT78 T lymphoma using MTT assay; assay type: functional; settings: Homo sapiens
[26] = test system: CCRF-CEM; experiment: Tested for the inhibitory concentration against cell growth of Tcell leukemic cell line CCRF-CEM using MTT assay; assay type: functional; settings: Homo sapiens
[27] = test system: HuT78; experiment: Tested for the inhibitory concentration against cell growth of human leukemic cell line HuT78; assay type: functional
[28] = test system: Escherichia coli; experiment: Tested for the antimicrobial activity against Escherichia coli ATCC 25922; assay type: functional
[29] = test system: RPMI-8226; experiment: Tested for the inhibitory concentration against cell growth of human leukemic cell line RPMI8226; assay type: functional
[30] = test system: E6SM; experiment: Tested for antiviral activity against VSV-virus in human embryonic skin muscle fibroblasts; assay type: functional; settings: Muscle tissue
[31] = test system: E6SM; experiment: Tested for antiviral activity against herpes simplex virus type 1(KOS) in E6SM cell line(human embryonic skin-muscle fibroblasts); assay type: functional
[32] = test system: MT4; experiment: Tested for effective concentration required to protect MT-4 cells against the cytopathicity of HIV-1(IIIB); assay type: functional; settings: Homo sapiens, read-out: LC50 (the source's name)
[33] = test system: HeLa; experiment: Tested for cytotoxic activity in human epithelial cell line (HeLa); assay type: functional
[34] = test system: K562; experiment: Tested for the concentration required to reduce the viability of leukemia cells by 50% against cell growth of K562 chronic myeloid leukemia using MTT assay; assay type: functional; settings: Homo sapiens, read-out: LC50 (the source's name)
[35] = test system: HL-60; experiment: Tested for the inhibitory concentration against cell growth of HL60 acute myeloid leukemia using MTT assay; assay type: functional; settings: Homo sapiens
[36] = test system: MOLT-4; experiment: Tested for the concentration required to reduce the viability of leukemia cells by 50% against cell growth of T cell leukemia cell line MOLT-4 using MTT assay; assay type: functional; settings: Homo sapiens, read-out: LC50 (the source's name)
[37] = test system: Staphylococcus aureus; experiment: Tested for the antimicrobial activity against Staphylococcus aureus ATCC 6538; assay type: functional
[38] = test system: E6SM; experiment: Tested for cytotoxic activity in human embryonic skin muscle fibroblast (E6SM); assay type: functional; settings: Muscle tissue
[39] = test system: RPMI-8226; experiment: Tested for the concentration required to reduce the viability of leukemia cells by 50% against cell growth of RPMI8226 multiple myeloma using MTT assay; assay type: functional; settings: Homo sapiens, read-out: LC50 (the source's name)
[40] = test system: Vero; experiment: Tested for antiviral activity against parainfluenza virus in african green monkey kidney cell (Vero); assay type: functional; settings: Chlorocebus sabaeus
[41] = test system: HuT78; experiment: Tested for the concentration required to reduce the viability of leukemia cells by 50% against cell growth of HuT78 T lymphoma using MTT assay; assay type: functional; settings: Homo sapiens, read-out: LC50 (the source's name)
[42] = test system: HeLa; experiment: Tested for antiviral activity against coxsackie-B4 virus in human epithelial cell line; assay type: functional
[43] = test system: MT4; experiment: (§2) Tested for cytotoxic concentration required to reduce the viability of MT-4 cells by 50%; assay type: functional; settings: Homo sapiens
[44] = test system: CCRF-CEM; experiment: Tested for the inhibitory concentration against cell growth of human leukemic cell line CCRF-CEM; assay type: functional
[45] = test system: Vero; experiment: Tested for antiviral activity against Reo-1 virus in African green monkey kidney cell (Vero); assay type: functional; settings: Chlorocebus sabaeus
[46] = test system: Staphylococcus hominis; experiment: as §1; assay type: functional
[47] = test system: MT4; experiment: as §2; assay type: functional, cell-based; settings: Homo sapiens, read-out: EC50 (the source's name)

Question: For `S=C(N/N=C(/c1ccccn1)C12CC3CC(CC(C3)C1)C2)NNC(=S)c1ccc(Cl)cc1`, which GI50 [1] is on record?
Answer: 4.1 µM

Question: What about the MIC [2] of the same compound?
Answer: > 2000 mg/L

Question: And the MIC [3]?
Answer: > 16 mg/L

Question: What about the MIC [4] of the same compound?
Answer: > 16 mg/L

Question: What about the CC50 [5] of the same compound?
Answer: 85.5 µM

Question: What about the MIC [6] of the same compound?
Answer: 9.6 mg/L (≈ 19.8 µM)

Question: What about the GI50 [7] of the same compound?
Answer: 100 µM

Question: What about the MIC [8] of the same compound?
Answer: > 2 mg/L

Question: What about the TGI [9] of the same compound?
Answer: 100 µM

Question: And the MIC [10]?
Answer: > 5 mg/L

Question: What about the MIC [11] of the same compound?
Answer: > 16 mg/L

Question: What about the MIC [12] of the same compound?
Answer: > 3.2 mg/L

Question: And the GI50 [13]?
Answer: 100 µM

Question: What about the MCC [14] of the same compound?
Answer: 80 µg/mL

Question: And the TGI [15]?
Answer: 100 µM

Question: And the CC50 [16]?
Answer: 100 µM

Question: What about the MIC [17] of the same compound?
Answer: > 2 mg/L

Question: And the MIC [18]?
Answer: 1000 mg/L (≈ 2070 µM)

Question: What about the MIC [19] of the same compound?
Answer: > 16 mg/L

Question: And the TGI [20]?
Answer: 68.3 µM

Question: What about the MCC [21] of the same compound?
Answer: 5 µg/mL

Question: And the MIC [22]?
Answer: 1000 mg/L (≈ 2070 µM)

Question: What about the EC50 [23] of the same compound?
Answer: > 3 µM

Question: What about the MIC [24] of the same compound?
Answer: > 16 mg/L

Question: What about the TGI [25] of the same compound?
Answer: 100 µM

Question: What about the TGI [26] of the same compound?
Answer: 100 µM

Question: What about the GI50 [27] of the same compound?
Answer: 8 µM

Question: And the MIC [28]?
Answer: > 2000 mg/L

Question: What about the GI50 [29] of the same compound?
Answer: 6.7 µM

Question: And the MIC [30]?
Answer: > 16 mg/L

Question: And the MIC [31]?
Answer: > 16 mg/L

Question: And the EC50 [32]?
Answer: > 3 µM

Question: What about the MCC [33] of the same compound?
Answer: > 16 µg/mL

Question: And the CC50 [34]?
Answer: 100 µM

Question: What about the TGI [35] of the same compound?
Answer: 9.5 µM

Question: What about the CC50 [36] of the same compound?
Answer: 100 µM

Question: What about the MIC [37] of the same compound?
Answer: 1000 mg/L (≈ 2070 µM)

Question: And the MCC [38]?
Answer: 80 µg/mL

Question: And the CC50 [39]?
Answer: 100 µM

Question: What about the MIC [40] of the same compound?
Answer: > 16 mg/L

Question: What about the CC50 [41] of the same compound?
Answer: 100 µM

Question: And the MIC [42]?
Answer: > 3.2 mg/L

Question: What about the CC50 [43] of the same compound?
Answer: 2.8 µM

Question: What about the GI50 [44] of the same compound?
Answer: 76 µM

Question: What about the MIC [45] of the same compound?
Answer: > 16 mg/L

Question: With `N/N=C(\S)N/N=C(/c1ccccn1)C12CC3CC(CC(C3)C1)C2` as the compound, how does the TGI [1] read?
Answer: 100 µM

Question: What about the MIC [2] of the same compound?
Answer: > 3040 mg/L

Question: And the MIC [3]?
Answer: > 80 mg/L

Question: What about the MIC [4] of the same compound?
Answer: > 16 mg/L

Question: What about the CC50 [5] of the same compound?
Answer: 100 µM

Question: What about the MIC [6] of the same compound?
Answer: > 80 mg/L

Question: And the GI50 [7]?
Answer: 41.7 µM

Question: And the MIC [8]?
Answer: > 20 mg/L

Question: And the TGI [9]?
Answer: 100 µM

Question: What about the MIC [10] of the same compound?
Answer: > 5 mg/L

Question: What about the MIC [11] of the same compound?
Answer: > 16 mg/L

Question: And the MIC [12]?
Answer: > 80 mg/L

Question: And the GI50 [13]?
Answer: 100 µM

Question: What about the MCC [14] of the same compound?
Answer: 80 µg/mL

Question: What about the TGI [15] of the same compound?
Answer: 100 µM

Question: What about the CC50 [16] of the same compound?
Answer: 100 µM

Question: What about the MIC [17] of the same compound?
Answer: > 20 mg/L

Question: And the MIC [18]?
Answer: > 3040 mg/L

Question: What about the MIC [19] of the same compound?
Answer: > 16 mg/L

Question: What about the TGI [20] of the same compound?
Answer: 100 µM

Question: And the MCC [21]?
Answer: > 20 µg/mL

Question: What about the MIC [46] of the same compound?
Answer: > 3040 mg/L

Question: And the EC50 [23]?
Answer: > 27 µM

Question: And the MIC [24]?
Answer: > 80 mg/L

Question: What about the TGI [25] of the same compound?
Answer: 100 µM

Question: What about the TGI [26] of the same compound?
Answer: 100 µM

Question: And the GI50 [27]?
Answer: 100 µM

Question: And the MIC [28]?
Answer: > 3040 mg/L

Question: And the GI50 [29]?
Answer: 100 µM

Question: And the MIC [30]?
Answer: > 16 mg/L

Question: What about the MIC [31] of the same compound?
Answer: > 16 mg/L

Question: And the EC50 [32]?
Answer: > 27 µM

Question: What about the MCC [33] of the same compound?
Answer: 400 µg/mL

Question: And the CC50 [34]?
Answer: 100 µM

Question: What about the TGI [35] of the same compound?
Answer: 100 µM

Question: And the CC50 [36]?
Answer: 100 µM

Question: What about the MIC [37] of the same compound?
Answer: > 3040 mg/L

Question: And the MCC [38]?
Answer: > 80 µg/mL

Question: And the CC50 [39]?
Answer: 100 µM

Question: What about the CC50 [47] of the same compound?
Answer: 27.3 µM

Question: And the MIC [40]?
Answer: > 80 mg/L

Question: What about the CC50 [41] of the same compound?
Answer: 100 µM

Question: What about the MIC [42] of the same compound?
Answer: > 80 mg/L

Question: What about the GI50 [44] of the same compound?
Answer: 100 µM

Question: And the MIC [45]?
Answer: > 80 mg/L
